98 compounds from ChEMBL document CHEMBL3507680, “University of Dundee, Gates Library screen for HepG2 cell viability” can be followed below.

The series is described as follows: Human HepG2 cell viability assay in 384 well format. The class given is toxicity, cell-based. More on the design: dose 125 nL, time 70.5 hour; cytotoxicity at 70.5 h: concentration not given beside the values. The note with it: HepG2 cells, read-out: Inhibition.
On to `Cc1cc(C)c(CNC(=O)NCc2ccc(F)c(C)c2)c(=O)[nH]1`, for which the cytotoxicity at 70.5 h was -0.902%.
For `CCc1cc(N2CCS(=O)(=O)CC2)n2nc(C)c(C)c2n1`, the cytotoxicity at 70.5 h is -5.71%.
To `CSc1ncc(CN2C[C@H]3CC[C@@H]2CN(C2CCOCC2)C3)cn1` belongs -3.4%; to `COc1cc(N2C[C@H]3CN(Cc4ccccn4)C[C@H]3C2)ncn1`, -4.15%; to `N#Cc1ccc(Cl)cc1NCC1CCOC1` (stereo not drawn), -1.84%.
Take `Cn1nnnc1SC1CCN(c2ccccc2Cl)C1=O` (stereo not drawn): the cytotoxicity at 70.5 h was -2.66%.
As for `CNC(=O)c1nc(Cn2ncc3ccccc3c2=O)no1`, the cytotoxicity at 70.5 h is -3.17%.
To `CCCc1noc(CN2CCC(c3ccnn3CCO)CC2)n1` belongs -0.994%; to `Cc1ccsc1C(=O)NC(C)c1ccc2c(c1)CCC(=O)N2` (stereo not drawn), -1.83%.
Take `OCCN1CCN(Cc2coc(-c3ccccc3)n2)CC1`: the cytotoxicity at 70.5 h is -4.94%.
Regarding `Cc1noc(C)c1CN(C)Cn1c(=O)n(C)c2ccccc21`, the cytotoxicity at 70.5 h was -6.45%.
As to `CCOc1ncccc1Cn1cc(-c2ccc(CO)o2)nn1`, the cytotoxicity at 70.5 h was -15.3%.
To `COCCN1C(=O)CCC12CCCN(Cc1nccs1)CC2` (stereo not drawn) belongs -6.77%.
To `Cc1cc2c(N3CCCC(OCc4cccnc4)C3)ncnc2s1` (stereo not drawn) belongs -9.75%; to `c1cc2c(cc1CN1CCCC3(CCOC3)C1)OCO2` (stereo not drawn), 41.1%.
To `CC(C)N1C[C@@H](CO)[C@H](c2ccccc2)S1(=O)=O` belongs -3.46%; to `CC(c1ccccc1)N1CCC(NC(=O)CCc2ccsc2)CC1` (stereo not drawn), -7.82%; to `COCCN1C[C@H]2CN(C(=O)c3ccno3)CCN2C1=O`, -6.26%.
With `CCNc1nc(-c2cccnc2)c(-c2ccnc(N3CCOCC3)n2)s1`, the cytotoxicity at 70.5 h was -10.7%.
For the compound `Cc1nn(C)cc1-c1cc(C(=O)NCC(C)(C)c2ccc(F)cc2)n[nH]1`, the cytotoxicity at 70.5 h was 4.21%.
On to `CC(Cn1cccn1)NC(=O)NCc1ccc(C(N)=O)cc1` (stereo not drawn), for which the cytotoxicity at 70.5 h is -15.4%.
For `Cc1nn(CCC(=O)N(C)Cc2c(Cl)cnn2C)cc1Br`, the cytotoxicity at 70.5 h is -14.9%.
On to `Fc1cnc(N2CCCn3cnc(COc4cccnc4)c3C2)nc1`, for which the cytotoxicity at 70.5 h was -2.49%.
As to `Cc1cnn(CC(=O)Nc2cc(-n3nnnc3C3CC3)ccc2F)c1`, the cytotoxicity at 70.5 h was -7.79%.
To `N#Cc1cn[nH]c1NCc1cc(I)cc(I)c1O` belongs -9.83%.
In the case of `CC(C)c1nc2n(n1)CC(NCCc1cccs1)CC2` (stereo not drawn), the cytotoxicity at 70.5 h was -5.42%.
Regarding `CCN1CCN(c2ccc(C(=O)NC(C)c3ccncc3)cc2)CC1` (stereo not drawn), the cytotoxicity at 70.5 h turned out to be 6.23%.
For the compound `CN1CCOC(CNCC(=O)NCCCc2ccccc2)C1` (stereo not drawn), the cytotoxicity at 70.5 h is 4.87%.
To `FC(F)c1nnc2ccc(N3CCC4(CCCCC4)C3)nn12` belongs -3.87%.
For `CSc1ccc(C(CN)N2CCc3sccc3C2)cc1` (stereo not drawn) the value was 24.3%; for `NC(=O)c1csc(C(=O)N2CCCC(n3ccnc3)C2)c1` (stereo not drawn), -8.21%.
For `Cc1[nH]nc2ncc(C(=O)N3CCN(C(C)(C)C)CC3)cc12`, the cytotoxicity at 70.5 h is -0.02%.
With `CC1(C)OCC(CNC(=O)c2cnn(-c3cccc(Cl)c3Cl)c2N)O1` (stereo not drawn), the cytotoxicity at 70.5 h turned out to be 17%.
`Cc1cnn(C2CCCN(C(=O)C3=NN(C)C(=O)CC3)C2)c1` (stereo not drawn): the cytotoxicity at 70.5 h was determined as 22.6%.
In the case of `Cc1cc(N2CCN(C(=O)c3cc(Cl)c[nH]3)CC2)nc(C)n1`, the cytotoxicity at 70.5 h was -4.7%.
For `O=C(Nc1ccc(Cl)cn1)C1CCN(CCc2ccccn2)CC1` the value was -1.68%.
To `CN1CCC2(CC1)C(=O)N(CC1CC1)c1ccccc12` belongs -9.7%; to `O=C(c1ccco1)N1CCc2ncnc(Oc3cccnc3)c2CC1`, -0.464%; to `O=C(c1ccc[nH]1)N1CCCn2c(CN3CCCCC3)nnc2C1`, -5.4%.
`COc1cccc([C@@H]2CCN(Cc3cccc(C)n3)C[C@H]2O)c1`: the cytotoxicity at 70.5 h was -9.27%.
For `CC(C)OCCN1CCC(N2CCN(C)C2=O)CC1` the value was -2.99%; for `CCOCCCNC(=O)c1cccn1Cc1cccnc1`, -4.46%; for `COCCN1C(=O)CC[C@@H]2[C@@H]1CCN2S(=O)(=O)C1CC1`, -3.21%.
Turning to `CO[C@@H]1CN(C)S(=O)(=O)[C@@]12CCN(Cc1ccccc1)C2`, the cytotoxicity at 70.5 h was -7.27%.
For `CCc1cnc(N2CC[C@@H]3CN(C(C)=O)CCO[C@@H]3C2)nc1` the value was -2.86%; for `O=C1CCC(c2nc(C3CCN(C(=O)Cc4cccs4)CC3)no2)N1` (stereo not drawn), -6.58%; for `CN(CCc1ccccn1)C(=O)Nc1cccnc1-n1cccn1`, -16.2%.
`Cn1ccnc1N1CCN(C(=O)Cc2ccc(Cl)cc2)CC1`: the cytotoxicity at 70.5 h is -1.94%.
For `Cc1nn(C)c(C)c1CNCc1cccnc1N1CCOCC1` the value was -7.44%.
For `CCOc1ccc(CN2CCCC(c3cc4ncccc4[nH]3)C2)cc1` (stereo not drawn) the value was 6.95%.
As to `Cn1cnc(S(=O)(=O)N2CCO[C@H]3[C@H](OCC4CC4)CC[C@@H]32)c1`, the cytotoxicity at 70.5 h was -2.37%.
For `Cc1cccc(-c2nccnc2C2CCN(C)CC2)c1C` the value was 0.0925%; for `CNC(=O)C1CCC(NC(=O)N(C)Cc2c(C)noc2C)CC1` (stereo not drawn), 31.6%.
To `CCN(CC)C1CCN(C(=O)c2cc(CC(C)C)nn2CC)C1` (stereo not drawn) belongs 3.49%; to `CSCC(CCO)NC(=O)Nc1cc(C)ccc1C` (stereo not drawn), 0.113%; to `CCNc1ccnc(N2CCN(Cc3ncccc3C)CC2)n1`, 3.6%.
For `COC(=O)C(C)(C)NC(=O)C1CC(=O)N(C)C1` (stereo not drawn), the cytotoxicity at 70.5 h is -7.02%.
As for `CN(Cc1cnn(C)c1)C(=O)CN1CCCC(Cn2cncn2)C1` (stereo not drawn), the cytotoxicity at 70.5 h turned out to be 48%.
Regarding `CC1c2ncc(COCC3CC3)n2CCN1C(=O)c1ccnn1C` (stereo not drawn), the cytotoxicity at 70.5 h is -10.2%.
For `COc1cc(C(=O)NS(=O)(=O)c2cccc(C#N)c2)cc(OC)c1Br`, the cytotoxicity at 70.5 h was -6.73%.
For the compound `O=C(Cc1cc2c(cc1Cl)OCCO2)N1CC[C@H](CO)[C@H](O)C1`, the cytotoxicity at 70.5 h was -5.99%.
`O=c1cc(C2CCNCC2)nc(CCCc2ccccc2)[nH]1`: the cytotoxicity at 70.5 h was -3.39%.
For the compound `CC(C)N1C(=O)CN(CCCO)CC1(C)C`, the cytotoxicity at 70.5 h is -9.87%.
Consider `COc1ccccc1C1SCC(=O)Nc2c1c(=O)[nH]n2C1CCOCC1` (stereo not drawn), for which the cytotoxicity at 70.5 h was -24.1%.
To `CC1=N[C@@]2(CC[C@@H]3CN(S(=O)(=O)CC(C)C)C[C@@H]32)C(=O)N1CC1CC1` belongs 8.18%; to `COC(=O)c1ccc(CNC(=O)CN2C[C@@H](NC(C)=O)[C@H](C(C)C)C2)o1`, -6.07%; to `CCCS(=O)(=O)N1CCC2(CN(c3ccccc3)C(=O)CN2C)C1` (stereo not drawn), -87.7%.
`Cc1nn(C)c(C)c1C(=O)N1CCN(C(=O)CCC2CCCCC2)CC1`: the cytotoxicity at 70.5 h was -13.4%.
Regarding `O=C1CN(c2ccc(CNC(=O)Nc3nnc(C4CC4)s3)cc2)CCN1`, the cytotoxicity at 70.5 h stood at 21.5%.
In the case of `CC1c2ncc(Cn3cccn3)n2CCN1Cc1cccnc1` (stereo not drawn), the cytotoxicity at 70.5 h is -1.36%.
`Cc1ccc2c(c1)[C@@H](CC(=O)N1CCN(C)CC1)CCO2`: the cytotoxicity at 70.5 h was found to be 3.15%.
Consider `CC(=O)N1CCC(NC(=O)CN2CCCc3c(F)ccc(C)c32)CC1`, for which the cytotoxicity at 70.5 h is -4.42%.
With `Cc1ncsc1CN1C[C@H]2CC[C@@H]1CN(Cc1ccccc1)C2`, the cytotoxicity at 70.5 h came out at 30%.
For `CCNc1ncc2c(n1)CN(c1ccc(Cl)cc1)C2=O` the value was -14.1%.
To `O=c1ccc2c(n1Cc1ccncc1)CCN(Cc1ccoc1)CC2` belongs 1.47%; to `Cc1nsc(NC(=O)N2CCCCC2CCCO)n1` (stereo not drawn), -1.47%.
For `CCn1cc(CN2CCCN(C(=O)Cc3cccs3)CC2)cn1` the value was 28%; for `O=C(NCc1cc2n(n1)CCCNC2)c1cn2cc(Cl)ccc2n1`, -2.1%.
With `COc1nc2c(cc1C(=O)N(C)Cc1noc3c1CCCC3)CCC2`, the cytotoxicity at 70.5 h is -0.83%.
Turning to `Cn1cc(S(=O)(=O)NCC2CCN(C(=O)c3ccoc3)CC2)cn1`, the cytotoxicity at 70.5 h is -2.52%.
For `CC1CC(=O)c2cc(C(=O)N3CCc4ccccc43)c(=O)[nH]c2C1` (stereo not drawn) the value was -1.11%.
With `COc1ccc(-c2nccn2CC(O)CN2CCCC2)c(F)c1` (stereo not drawn), the cytotoxicity at 70.5 h is 28.4%.
As to `Cc1cc(C)n(-c2ccc(CNCc3ccc(OC(C)C)cc3)cn2)n1`, the cytotoxicity at 70.5 h is -0.102%.
To `CN(C)C(=O)COCc1cncc2c1CCN(Cc1cnn(C)c1)C2` belongs -8.65%.
To `Cc1cc(C(F)(F)F)nn1C(C)C(=O)NN1CCOCC1` (stereo not drawn) belongs -7.56%.
On to `Cc1cccc(N2CCN(C(=O)CN3CCC(C(N)=O)CC3)CC2)c1`, for which the cytotoxicity at 70.5 h is -2.32%.
To `COc1ccc(C(=O)N2CCC3(CC2)c2ccccc2[C@@H](N)[C@@H]3O)cc1` belongs 0.101%; to `Cc1cnc(CCNC(Cc2ccncc2)C(F)(F)F)s1` (stereo not drawn), -7.12%.
To `CCC(C)(C)NC(=O)CSCc1ccc(S(=O)(=O)N(C)C)o1` belongs -9.79%.
In the case of `O=c1cc(CN2CC[C@H]3CC[C@@H](C2)N3)c2cccc3c2n1CCC3`, the cytotoxicity at 70.5 h was -14.4%.
As to `N#Cc1ccc(C(=O)N2CCCC3(C=Cc4ccccc4O3)CC2)cn1` (stereo not drawn), the cytotoxicity at 70.5 h came out at 7.89%.
For `CC(=O)N1CC(C(=O)N2CCCC(Cn3ccnc3C)C2)C1` (stereo not drawn) the value was -9.41%; for `O=C(NCc1cccs1)C1CCCN(c2cc(-n3cncn3)ncn2)C1` (stereo not drawn), -3.14%.
With `O=C(Nc1ccc(F)cc1)C1CNCCN1C(=O)CCO` (stereo not drawn), the cytotoxicity at 70.5 h was 8.54%.
`CCOCC1CN(C2CCCC2)Cc2cnn(CC3CCOCC3)c21` (stereo not drawn): the cytotoxicity at 70.5 h worked out at 2.06%.
For `NC(=O)c1noc(Cn2ncc3ccccc3c2=O)n1` the value was 12.9%; for `Cc1oncc1C(=O)N1CC[C@H]2[C@H](CO[C@@H]2CNS(C)(=O)=O)C1`, -5.2%.
For `O=S(=O)(NCCC(O)c1cccs1)c1ccccc1Cl` (stereo not drawn) the value was -10.8%.
